Data as given in US9247741B2, “Use of macrocyclic picolinamides as fungicides” (DOW AGROSCIENCES LLC, priority 2013, dated 2016).
Where two headings read alike, the source gives them in different places.

What was measured:
[1] = tested on: Mycosphaerella graminicola; Anamorph: Septoria tritici; assay: Leaf blotch of wheat (SEPTTR) disease control on wheat seedlings; assay type: in vivo; settings: Zymoseptoria tritici, wheat; for pest or weed control at 121.5 g/ha: 121.5 g/H (low volume track spray); for pest or weed control at 100 ppm: 100 ppm (high volume)
Protocol: Evaluation of Fungicidal Activity: Leaf Blotch of Wheat (Mycosphaerella graminicola; Anamorph: Septoria tritici; Bayer Code […]) Technical grades of materials were dissolved in acetone, which were then mixed with nine volumes of water containing 110 ppm Triton X-100. The fungicide solutions were applied onto wheat seedlings using an automated booth sprayer to run-off. All sprayed plants were allowed to air dry prior to further handling. All fungicides were evaluated using the aforementioned method for their activity vs. all target diseases. Wheat leaf blotch and brown rust activity were also evaluated using track spray applications, in which case the fungicides were formulated as EC formulations, containing 0.1% Trycol 5941 in the spray solutions. Wheat plants (variety Yuma) were grown from seed in a greenhouse in 50% mineral soil/50% soil-less Metro mix until the first leaf was fully emerged, with 7-10 seedlings per pot. These plants were inoculated with an aqueous spore suspension of Septoria tritici either prior to or after fungicide treatments. After inoculation the plants were kept in 100% relative humidity (one day in a dark dew chamber followed by two to three days in a lighted dew chamber at 20° C.) to permit spores to germinate and infect the leaf. The plants were then transferred to a greenhouse set at 20° C. for disease to develop. When disease symptoms were fully expressed on the l^st leaves of untreated plants, infection levels were assessed on a scale of 0 to 100 percent disease severity. Percent disease control was calculated using the ratio of disease severity on treated plants relative to untreated plants.

[2] = tested on: Puccinia triticina; assay: Wheat brown rust (PUCCRT) disease control on wheat seedlings; assay type: in vivo; settings: for pest or weed control at 121.5 g/ha: 121.5 g/H (low volume track spray); for pest or weed control at 100 ppm: 100 ppm (high volume)
Protocol: Technical grades of materials were dissolved in acetone, which were then mixed with nine volumes of water containing 110 ppm Triton X-100. The fungicide solutions were applied onto wheat seedlings using an automated booth sprayer to run-off. All sprayed plants were allowed to air dry prior to further handling. All fungicides were evaluated using the aforementioned method for their activity vs. all target diseases. Wheat leaf blotch and brown rust activity were also evaluated using track spray applications, in which case the fungicides were formulated as EC formulations, containing 0.1% Trycol 5941 in the spray solutions. Wheat plants (variety Yuma) were grown from seed in a greenhouse in 50% mineral soil/50% soil-less Metro mix until the first leaf was fully emerged, with 7-10 seedlings per pot. These plants were inoculated with an aqueous spore suspension of Septoria tritici either prior to or after fungicide treatments. After inoculation the plants were kept in 100% relative humidity (one day in a dark dew chamber followed by two to three days in a lighted dew chamber at 20° C.) to permit spores to germinate and infect the leaf. The plants were then transferred to a greenhouse set at 20° C. for disease to develop. When disease symptoms were fully expressed on the l^st leaves of untreated plants, infection levels were assessed on a scale of 0 to 100 percent disease severity. Percent disease control was calculated using the ratio of disease severity on treated plants relative to untreated plants. Evaluation of Fungicidal Activity: Wheat Brown Rust (Puccinia triticina; Synonym: Puccinia recondite f sp. tritici; Bayer code PUCCRT) Wheat plants (variety Yuma) were grown from seed in a greenhouse in 50% mineral soil/50% soil-less Metro mix until the first leaf was fully emerged, with 7-10 seedlings per pot. These plants were inoculated with an aqueous spore suspension of Puccinia triticina either prior to or after fungicide treatments. After inoculation the plants were kept in a dark dew room at 22° C. with 100% relative humidity overnight to permit spores to germinate and infect the leaf. The plants were then transferred to a greenhouse set at 24° C. for disease to develop. Fungicide formulation, application and disease assessment followed the procedures as described in the Example A.

[3] = 24 h, 1 Day Protectant, read-out: SEPTTR 1DP disease control rating
[4] = 72 h, 3 Day Curative, read-out: SEPTTR 3DC disease control rating
[5] = 24 h, 1 Day Protectant, read-out: PUCCRT 1DP disease control rating
[6] = 72 h, 3 Day Curative, read-out: PUCCRT 3DC disease control rating

SMILES | pest or weed control at 121.5 g/ha [1, 3] | pest or weed control at 121.5 g/ha [1, 4] | pest or weed control at 121.5 g/ha [2, 5] | pest or weed control at 121.5 g/ha [2, 6] | pest or weed control at 100 ppm [1, 3] | pest or weed control at 100 ppm [1, 4] | pest or weed control at 100 ppm [2, 5] | pest or weed control at 100 ppm [2, 6]
CCCC[C@H]1[C@H](C)OC(=O)[C@@H](NC(=O)c2nccc(OC)c2OCOC(C)=O)CCC[C@@H]1OCCCC(F)(F)F [Compound 52] | > 70% | > 70% | > 70% | > 70% |  |  |  | 
COc1ccnc(C(=O)N[C@H]2CCC[C@H](OCc3ccccc3)[C@@H](CCC(C)C)[C@H](C)OC2=O)c1OCOC(C)=O [Compound 1] | > 70% | > 70% | > 70% | > 70% |  |  |  | 
COc1ccnc(C(=O)N[C@H]2CCC[C@H](OC(=O)C3CC3)[C@@H](Cc3ccc(F)cc3)[C@H](C)OC2=O)c1OCOC(C)=O [Compound 43] | > 70% | > 70% | > 70% | > 70% |  |  |  | 
CCCC[C@H]1[C@H](C)OC(=O)[C@@H](NC(=O)c2nccc(OC)c2OCOC(C)=O)CCC[C@@H]1OC(=O)C(C)C [Compound 50] | > 70% | > 70% | > 70% | > 70% |  |  |  | 
COc1ccnc(C(=O)N[C@H]2CCC[C@H](OCC3CC3)[C@@H](Cc3ccccc3)[C@H](C)OC2=O)c1OCOC(C)=O [Compound 56] |  |  |  |  | > 70% | > 70% | > 70% | > 70%
CCCC[C@H]1[C@H](C)OC(=O)[C@@H](NC(=O)c2nccc(OC)c2OC(C)=O)CCC[C@@H]1OCc1ccccc1 [Compound 63] | > 70% | > 70% | > 70% | > 70% |  |  |  | 
CCCC[C@H]1[C@H](C)OC(=O)[C@@H](NC(=O)c2nccc(OC)c2OC(C)=O)CCC[C@@H]1OC(=O)C(C)C [Compound 44] | > 70% | > 70% | > 70% | > 70% |  |  |  | 
COc1ccnc(C(=O)N[C@H]2CCC[C@H](Oc3ccc(C)cc3)[C@@H](Cc3ccc(F)cc3)[C@H](C)OC2=O)c1OCOC(C)=O [Compound 42] | > 70% | > 70% | > 70% | < 70% |  |  |  | 
COc1ccnc(C(=O)N[C@H]2CCC[C@H](OCC3CC3)[C@@H](Cc3ccccc3)[C@H](C)OC2=O)c1O [Compound 67] |  |  |  |  | > 70% | > 70% | > 70% | > 70%
CCCC[C@H]1[C@H](C)OC(=O)[C@@H](NC(=O)c2nccc(OC)c2O)CCC[C@@H]1OCCCC(F)(F)F [Compound 13] |  |  |  |  | > 70% | < 70% | > 70% | < 70%
CCCC[C@H]1[C@H](C)OC(=O)[C@@H](NC(=O)c2nccc(OC)c2O)CCC[C@@H]1OCC1CC1 [Compound 32] |  |  |  |  | > 70% | > 70% | > 70% | > 70%
CCCC[C@H]1[C@H](C)OC(=O)[C@@H](NC(=O)c2nccc(OC)c2OCOC(C)=O)CCC[C@@H]1OCc1ccccc1 [Compound 15] | > 70% | > 70% | > 70% | > 70% |  |  |  | 
CCCO[C@H]1CCC[C@H](NC(=O)c2nccc(OC)c2OCOC(C)=O)C(=O)O[C@@H](C)[C@@H]1Cc1ccc(F)cc1 [Compound 7] | > 70% | > 70% | > 70% | > 70% |  |  |  | 
COc1ccnc(C(=O)N[C@H]2CCC[C@H](Oc3ccc(C)cc3)[C@@H](Cc3ccc(F)cc3)[C@H](C)OC2=O)c1O [Compound 38] |  |  |  |  | > 70% | < 70% | > 70% | < 70%
CCCC[C@H]1[C@H](C)OC(=O)[C@@H](NC(=O)c2nccc(OC)c2OCOC(=O)COCC)CCC[C@@H]1OC(=O)C(C)C [Compound 71, (2S,3S,4S,8S)-3-butyl-8-(3-((2-ethoxyacetoxyl)methoxy)-4-methoxypicolinamido)-2-methyl-9-oxooxonan-4-yl isobutyrate] | > 70% | > 70% | > 70% | > 70% |  |  |  | 
COc1ccnc(C(=O)N[C@H]2CCC[C@H](OC(=O)C3CC3)[C@@H](Cc3ccc(F)cc3)[C@H](C)OC2=O)c1O [Compound 2] |  |  |  |  | > 70% | < 70% | > 70% | > 70%
CCCC[C@H]1[C@H](C)OC(=O)[C@@H](NC(=O)c2nccc(OC)c2O)CCC[C@@H]1OC(=O)C(C)C [Compound 64] |  |  |  |  | > 70% | > 70% | > 70% | < 70%
COc1ccnc(C(=O)N[C@H]2CCC[C@H](OCC3CC3)[C@@H](Cc3ccccc3)[C@H](C)OC2=O)c1OC(C)=O [Compound 76] |  |  |  |  | > 70% | > 70% | > 70% | > 70%
CCCC[C@H]1[C@H](C)OC(=O)[C@@H](NC(=O)c2nccc(OC)c2O)CCC[C@@H]1Oc1ccccc1 [Compound 29] |  |  |  |  | > 70% | < 70% | > 70% | > 70%
CCOCC(=O)OCOc1c(OC)ccnc1C(=O)N[C@H]1CCC[C@H](Oc2ccc(C)cc2)[C@@H](Cc2ccc(F)cc2)[C@H](C)OC1=O [Compound 35] | < 70% | < 70% | > 70% | < 70% |  |  |  | 
CCCO[C@H]1CCC[C@H](NC(=O)c2nccc(OC)c2O)C(=O)O[C@@H](C)[C@@H]1Cc1ccc(F)cc1 [Compound 37] |  |  |  |  | > 70% | < 70% | > 70% | > 70%
COc1ccnc(C(=O)N[C@H]2CCC[C@H](OCc3ccccc3)[C@@H](CCC(C)C)[C@H](C)OC2=O)c1O [Compound 58] |  |  |  |  | < 70% | < 70% | > 70% | > 70%
COc1ccnc(C(=O)N[C@H]2CCC[C@H](Oc3ccc(C)cc3)[C@@H](Cc3ccccc3)[C@H](C)OC2=O)c1OC(C)=O [Compound 55] | > 70% | < 70% | > 70% | > 70% |  |  |  | 
COc1ccnc(C(=O)N[C@H]2CCC[C@H](OCC(C)C)[C@@H](Cc3ccccc3)[C@H](C)OC2=O)c1OC(C)=O [Compound 72] | > 70% | > 70% | > 70% | > 70% |  |  |  | 
COc1ccnc(C(=O)N[C@H]2CCC[C@H](OCC3CC3)[C@@H](Cc3ccc(F)cc3)[C@H](C)OC2=O)c1O [Compound 26] |  |  |  |  | > 70% | < 70% | > 70% | > 70%
